The target of this experiment is Mu-type opioid receptor (Rattus norvegicus, UniProt P33535). As to the kind of experiment: Concentration required for 50% inhibition of [3H]DAGO binding to mu opioid receptor in crude rat brain homogenates. In kind it is tissue-based.

In ChEMBL document CHEMBL1127196, “The use of synthetic peptide combinatorial libraries for the determination of peptide ligands in radio-receptor assays: Opioid peptides” (Bioorg Med Chem Lett, 1993) one finds IC50 data, which are given here for 37 compounds.

Mu-type opioid receptor, sequence (P33535 whole entry): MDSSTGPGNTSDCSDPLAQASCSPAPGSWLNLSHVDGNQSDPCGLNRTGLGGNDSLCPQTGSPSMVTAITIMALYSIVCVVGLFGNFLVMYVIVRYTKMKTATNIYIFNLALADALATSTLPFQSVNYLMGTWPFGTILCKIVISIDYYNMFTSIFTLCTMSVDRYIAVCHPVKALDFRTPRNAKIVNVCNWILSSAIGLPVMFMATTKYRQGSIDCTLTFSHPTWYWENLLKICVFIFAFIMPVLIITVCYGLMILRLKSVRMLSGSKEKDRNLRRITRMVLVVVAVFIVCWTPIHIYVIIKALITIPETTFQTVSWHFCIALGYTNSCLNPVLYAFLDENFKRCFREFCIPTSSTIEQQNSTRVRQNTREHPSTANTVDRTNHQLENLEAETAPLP

`CSCC[C@H](NC(=O)[C@H](Cc1ccccc1)N(N)C(=O)CNC(=O)CN(N)C(=O)[C@H](Cc1ccc(ON)cc1)NN)C(=O)N[C@H](C(N)=O)C(C)C`: the half-maximal inhibitory concentration (IC50) amounted to 107 nM.

As to `CSCC[C@H](NC(=O)[C@H](Cc1ccccc1)NC(O)CNC(=O)CNC(=O)[C@@H](N)Cc1ccc(O)cc1)C(N)=O` (some centres not stated), the 50% inhibitory concentration (IC50) was 34 nM.

H-YGGFLA-NH2 had an IC50 of 60 nM. Turning to H-YGGFLD-NH2, the IC50 came out at 214 nM. Compound H-YGGFLE-NH2 registered an IC50 of 315 nM. H-YGGFLF-NH2 returned a half-inhibitory concentration (IC50) of 381 nM. H-YGGFLG-NH2 returned an IC50 of 59 nM. H-YGGFLH-NH2: the IC50 is 141 nM. As to H-YGGFLI-NH2, the IC50 was 168 nM. In the case of H-YGGFLK-NH2, the IC50 was found to be 201 nM.

Compound H-YGGFLL-NH2 came in with an IC50 of 98 nM. On to H-YGGFLM-NH2, for which the IC50 came to 112 nM.

Compound H-YGGFLN-NH2 showed an IC50 of 78 nM. For the compound H-YGGFLP-NH2, the IC50 was determined as 108 nM. In turn, H-YGGFLQ-NH2 showed an IC50 of 75 nM. To H-YGGFLR-NH2 belongs 158 nM. Turning to H-YGGFLS-NH2, the IC50 worked out at 65 nM. For the compound H-YGGFLT-NH2, the concentration for half-maximal inhibition (IC50) turned out to be 65 nM. H-YGGFLV-NH2 returned an IC50 of 189 nM.

H-YGGFLY-NH2: the IC50 was 77 nM. H-YGGFMA-NH2 yielded a half-maximal inhibitory concentration (IC50) of 28 nM. In turn, H-YGGFMD-NH2 returned an IC50 of 167 nM. Compound H-YGGFME-NH2 registered an IC50 of 204 nM. For H-YGGFMF-NH2, the 50% inhibitory concentration (IC50) was 223 nM.

With H-YGGFMG-NH2, the half-inhibitory concentration (IC50) came out at 35 nM. H-YGGFMH-NH2 came in with an IC50 of 37 nM. For the compound H-YGGFMI-NH2, the IC50 worked out at 80 nM. Compound H-YGGFMK-NH2 had a 50% inhibitory concentration (IC50) of 41 nM. Compound H-YGGFML-NH2 registered an IC50 of 35 nM. To H-YGGFMM-NH2 belongs 30 nM.

H-YGGFMN-NH2 came in with an IC50 of 28 nM.

The compound H-YGGFMP-NH2 returned an IC50 of 57 nM. H-YGGFMQ-NH2: the IC50 worked out at 40 nM.

In turn, H-YGGFMR-NH2 yielded an IC50 of 46 nM. Compound H-YGGFMS-NH2 displayed an IC50 of 34 nM. To H-YGGFMT-NH2 belongs 41 nM; to H-YGGFMY-NH2, 39 nM.

By IC50 is commonly meant the midpoint of a concentration-inhibition curve. Low readings indicate greater potency in that assay, high ones weaker potency in that assay.
